Consider 15 molecules from US6518293B2, “Anti-HIV imidazolone derivatives” (Hoffmann-La Roche Inc., priority 2000, dated 2003).

Structures are written as SMILES.

For assay [1], the target named is HIV-1 RT (Human immunodeficiency virus type 1 group M subtype B, UniProt P04585). Put plainly: HIV-1 Reverse Transcriptase Assay: Inhibitor IC50 Determination. The format is biochemical. As to conditions: purified recombinant enzyme, poly(rA)/oligo(dT)16 template-primer. On the procedure: Assay Method: HIV-1 Reverse Transcriptase Assay: Inhibitor IC50 Determination
HIV-1 RT assay was carried out in 96-well Millipore filtermat NOB50 plates using purified recombinant enzyme and a poly(rA)/oligo(dT)16 template-primer in a total volume of 50 μL. The assay constituents were 50 mM Tris/HCl, 50 mM NaCl, 1 mM EDTA, 6 mM MgCl2, 5 μM dTTP, 0.1 μCi [^3H] dTTP, 5 μg/ml poly (rA) pre annealed to 2.5 μg/ml oligo (dT)16 and a range of inhibitor concentrations in a final concentration of 10% DMSO. Reactions were initiated by adding 5 nM HIV-1 RT and after incubation at 37° C. for 30 min, they were stopped by the addition of 50 μl ice cold 20% TCA and allowed to precipitate at 4° C. for 30 min. The precipitates were collected by applying vacuum to the plate and sequentially washing with 2×200 μl of 10% TCA and 2×200 μl 70% ethanol. Finally the plates were dried and radioactivity counted in a Wallac Microbeta 1450 after the addition of 15 μl scintillation fluid per well. IC50's were calculated by plotting % inhibition versus log10 inhibitor concentrations.

Assay [2] relates to HXB2-strain of HIV in MT4 cells. As to the kind of experiment: Antiviral assay: protection of HIV-infected MT4 cells from cell death (MTT). The format is cell-based. The note with it: Human immunodeficiency virus 1; MT4 cells infected with HXB2-strain of HIV, MTT viability. Here is the method:
Anti-HIV antiviral activity was assessed using an adaptation of the method of Pauwels et al. {Pauwels et al., 1988, J Virol Methods 20:309-321}. The method is based on the ability of compounds to protect HIV-infected T lymphoblastoid cells (MT4 cells) from cell-death mediated by the infection. The endpoint of the assay was calculated as the concentration of compound at which the cell viability of the culture was preserved by 50% (‘50% inhibitory concentration’, IC50). The cell viability of a culture was determined by the uptake of soluble, yellow 3-[4,5-dimethylthiazol-2-yl]-2,5-diphenyltetrazolium bromide (MTT) and its reduction to a purple insoluble formazan salt. After solubilization, spectrophotometric methods were employed to measure the amount of formazan product.
MT4 cells were prepared to be in logarithmic-phase growth and a total of 2×10^6 cells infected with the HXB2-strain of HIV at a multiplicity of 0.0001 infectious units of virus per cell in a total volume of between 200-500 microlitres. The cells were incubated with virus for one h at 37° C. before removal of virus. The cells are then washed in 0.01 M phosphate buffered saline, pH 7.2 before being resuspensed in culture medium for incubation in culture with serial dilutions of test compound. The culture medium used was RPMI 1640 without phenol red, supplemented with penicillin, streptomycin, L-glutamine and 10% fetal calf serum (GM10).
Test compounds were prepared as 2 mM solutions in dimethyl sulphoxide (DMSO). Four replicate, serial 2-fold dilutions in GM10 were then prepared and 50 microlitres amounts placed in 96-well plates over a final nanomolar concentration range of 625-1.22. Fifty microlitres GM10 and 3.5×10^4 infected cells were then added to each well. Control cultures containing no cells (blank), uninfected cells (100% viability; 4 replicates) and infected cells without compound (total virus-mediated cell death; 4 replicates) were also prepared. The cultures were then incubated at 37° C. in a humidified atmosphere of 5% CO2 in air for […].
A fresh solution of 5 mg/ml MTT was prepared in 0.01 M phosphate buffered saline, pH 7.2 and 20 microlitres added to each culture. The cultures were further incubated as before for 2 h. They were then mixed by pipetting up and down and 170 microlitres of Triton X-100 in acidified isopropanol (10% v/v Triton X-100 in 1:250 mixture of concentrated HCl in isopropanol). When the formazan deposit was fully solubilized by further mixing, the absorbance (OD) of the cultures was measured at 540 nm and 690 nm wavelength (690 nm readings were used as blanks for artefacts between wells). The percent protection for each treated culture was then calculated from the equation: [formula]
The IC50 was then obtained from graph plots of percent protection versus log10 drug concentration.

As usually defined, the IC50 is the concentration needed to halve the response being measured. On to `CC(C)n1c(Sc2cc(Cl)cc(Cl)c2)c(CNCc2ccncc2)n(C)c1=O`, for which the IC50 in assay [1] came to 90 nM; in assay [2], 7 nM.
The corresponding values for `CC(C)n1c(Sc2cc(Cl)cc(Cl)c2)c(COCc2ccncc2)n(C)c1=O` are 171 nM and 4 nM.
With `CC(C)n1c(Sc2ccccc2)c(CNCc2ccncc2)n(C)c1=O`, the half-maximal inhibitory concentration (IC50) came to 520 nM in assay [1] and 32 nM in assay [2].
Turning to `CC(C)n1c(Sc2ccccc2)c(CNCc2ccccc2)n(C)c1=O`, the IC50 in assay [1] was determined as 730 nM; in assay [2], 44 nM.
For `CC(C)n1c(Oc2cc(Cl)cc(Cl)c2)c(CNCc2ccncc2)n(C)c1=O`, in that order: 2400 nM and 108 nM.
For the molecule `CC(C)n1c(Sc2cc(Cl)cc(Cl)c2)c(CCc2ccccc2)n(C)c1=O`, the IC50 in assay [1] amounted to 1160 nM.
On to `CCC(C)Sc1c(CNCc2ccncc2)n(C)c(=O)n1C(C)C` (centres unmarked), for which the IC50 in assay [1] came to 1910 nM.
With `COc1cccc(Sc2c(CNCc3ccncc3)n(C)c(=O)n2C(C)C)c1`, the IC50 in assay [1] was found to be 3340 nM.
For the molecule `CC(C)n1c(Sc2cc(Cl)cc(Cl)c2)c(CO)n(C)c1=O`, the IC50 in assay [1] is 10000 nM.
Still for that read-out and setting: for `Cn1c(COCc2ccccc2)c(Sc2cc(Cl)cc(Cl)c2)n(-c2ccccc2)c1=O` the value was 10000 nM; for `CC(C)n1c(Sc2cc(Cl)cc(Cl)c2)c(/C=C/C#N)n(C)c1=O`, 1920 nM.
On to `CCn1c(Cc2ccncc2)c(Sc2cc(Cl)cc(Cl)c2)n(C(C)C)c1=O`, for which the IC50 in assay [1] amounted to 649 nM.
As to `CC(C)n1c(Sc2cc(Cl)cc(Cl)c2)c(Cc2ccncc2)n(C)c1=O`, the IC50 in assay [1] was 313 nM; in assay [2] it was 7 nM.
For `CC(C)n1c(Sc2cc(Cl)cc(Cl)c2)c(COc2ccncc2)n(C)c1=O`, in that order: 608 nM and 134 nM.
For `CC(C)n1c(Sc2cc(Cl)cc(Cl)c2)c(COCc2cccnc2)n(C)c1=O`, in that order: 115 nM and 5 nM.
